From PubChem BioAssay (NCI) come the findings set out here.

Molecules are shown by their SMILES. “And” between values parts separate entries of the source, which are not always exact repeats. Equal entries are not always repeated.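 Where inhibition never reached the appropriate level, the endpoint shown equals the highest concentration tested. Otherwise, values were interpolated linearly from a five-concentration, 48-hour dose response in 96-well plates. Abbreviation: GI50, concentration required for 50% inhibition of growth. Definition used: TGI = concentration required for complete inhibition of growth.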 A value given as a limit tells only on which side of the number the result lay.

Common to all, as to experiment: growth of human tumour cells (NCI), 48 h
Assay [1] concerns HCC-2998 colon.
Assay [2] has as its system OVCAR-4 ovarian.
Assay [3] has as its system A498 renal.
Assay [4] deals with IGROV1 ovarian.
Assay [5] relates to NCI-H460 lung.
The subject of assay [6] is SK-OV-3 ovarian.
Assay [7] relates to SK-MEL-2 melanoma.
Assay [8] relates to KM12 colon.
Assay [9] relates to LOX IMVI melanoma.
Assay [10] deals with MOLT-4 leukemia.

On to `O=C1c2cccc(NCCCNCCO)c2C(=O)c2cccc(NCCCNCCO)c21`, for which the TGI in [1] was 2.4 µM and 2.13 µM; in assay [2], 2.59 µM and 6.09 µM; in [3] it was 4.66 µM and 7.58 µM; in [4] it was 8.22 µM and 9.3 µM; in assay [5] it was 4 µM and 4.23 µM; in assay [6], 7.23 µM. The TGI in assay [7] was 3.47 µM and 3.42 µM; in assay [8], 4.43 µM and 5.84 µM; in [9], 4.79 µM and 6.13 µM; in assay [10], 13.1 µM and 8.29 µM. Besides, the GI50 in assay [2] was 0.747 µM and 2.55 µM.

Take `COc1ccc(-n2cc(-c3cc(OC)c(OC)c(OC)c3)c(C(=O)C(F)(F)F)c2C)cc1`: the GI50 in [1] was > 100 µM; in assay [2], 9.28 µM; in assay [3], 6.4 µM; in assay [4], 85.7 µM; in assay [5] it was 29.4 µM; in assay [6], > 100 µM. Besides, the GI50 in assay [7] was > 100 µM; in assay [8] it was 32.6 µM; in assay [9], 47.4 µM; in assay [10], 6.02 µM. Moreover, the TGI in assay [1], in assay [2], in assay [3], in [4], in [5] and in assay [6] was > 100 µM each time. The TGI in assay [7], in assay [8], in assay [9] and in assay [10] was > 100 µM throughout.

As for `COc1cc(C(Cc2ccccc2)NC(C)=O)oc(=O)c1` (stereo not given), the TGI in [1], in [2], in assay [3], in assay [4], in assay [5] and in [6] was > 100 µM throughout. Also, the TGI in assay [7], in [8] and in assay [9] was > 100 µM in each case.

Regarding `COc1cc(N(CCC#N)CCC#N)ccc1/C(N=Nc1ccc([N+](=O)[O-])cc1)=N/NC(=O)c1cc(Br)ccc1O`, the GI50 in [1] was 40.9 µg/mL; in [2] it was 21.5 µg/mL; in assay [3] it was 86.6 µg/mL; in [4], 26.6 µg/mL; in assay [5] it was 33.8 µg/mL; in assay [6], 37.3 µg/mL. In addition, the GI50 in [7] is 44.2 µg/mL; in assay [8], 28.5 µg/mL; in assay [9] it was 29 µg/mL; in assay [10], 42.6 µg/mL. Besides, the TGI in [1] was 78.7 µg/mL; in [2], 62.4 µg/mL; in [3], > 150 µg/mL; in assay [4] it was 121 µg/mL; in assay [5], 107 µg/mL; in [6], > 150 µg/mL. Further, the TGI was > 150 µg/mL in [7], 71 µg/mL in assay [8], 110 µg/mL in assay [9] and 128 µg/mL in assay [10].

As to `[N-]=[N+]=NC12CC3C4CC5CC3C(C1)C(C5)C4C2`, the TGI in [1], in assay [2], in assay [3], in [4], in assay [5] and in assay [6] was > 100 µM each time. Also, the TGI in [7], in [8], in assay [9] and in [10] was > 100 µM in each case.

With `CCN1CCN(C(c2ccc(C(F)(F)F)cc2)c2ccc3cccnc3c2O)CC1` (stereo not given), the GI50 in assay [1] is 0.88 µM; in [2] it was 2.36 µM; in [3], 2.31 µM; in [4], 2.04 µM; in assay [5] it was 0.412 µM; in assay [6], 3.84 µM. Besides, the GI50 in [7] is 4.53 µM; in assay [8] it was 0.89 µM; in assay [9], 1.71 µM; in assay [10], 2.12 µM. Moreover, the TGI in assay [1] came to 12.2 µM; in assay [2], 14.3 µM; in assay [3], 14.1 µM; in assay [4], 12.4 µM; in assay [5] it was 10.8 µM; in assay [6], 16.8 µM. The TGI came out at 17.6 µM in assay [7], 16.8 µM in [8], 10.5 µM in [9] and 6.05 µM in assay [10].

On to `C=COCCCOc1ccccc1`, for which the TGI in [1], in [2], in assay [3], in assay [5], in [6] and in [7] was > 100 µM each time. For the same compound, the TGI in assay [8], in assay [9] and in assay [10] was > 100 µM each time. The GI50 in assay [3] and in [6] was > 100 µM each time.

Take `CC(C)c1ccccc1NC(=O)CCc1n[nH]c(=S)o1`: the TGI in [1] is > 100 µM; in assay [2], > 100 µM; in assay [3], > 100 µM; in [4], > 100 µM; in assay [5] it was > 80.1 µM; in assay [6], > 100 µM. Moreover, the TGI in assay [8], in [9] and in [10] was > 100 µM each time.

Consider `S=C(Nc1ccccc1)N(/N=C/C=C/c1ccccc1)c1nnc(-c2ccccc2)c(-c2ccccc2)n1`, for which the TGI in assay [1], in assay [2], in [3], in assay [4], in assay [5] and in [6] was > 100 µM each time. Also, the TGI in assay [7], in [8], in assay [9] and in [10] was > 100 µM each time.

Consider `CCC[CH2][Sn]1([CH2]CCC)[O]N=C(c2ccccc2)C(c2ccccc2)[O]1` (stereo not given), for which the GI50 in [1] is 2.18 µM; in [2] it was 2.13 µM; in [3], 2.59 µM; in [4], 1.89 µM; in [5], 4.46 µM; in [6], 3.84 µM. Besides, the GI50 in [7] was 1.27 µM; in [8], 3.49 µM; in assay [9] it was 1.38 µM; in assay [10], 1.81 µM. Also, the TGI in [1] came to 4.47 µM; in [2] it was 4.18 µM; in [3], 4.82 µM; in assay [4], 3.9 µM; in assay [5] it was 15.8 µM; in [6] it was 12.7 µM. Moreover, the TGI in [7] came to 2.53 µM; in assay [8], 14.1 µM; in assay [9], 2.86 µM; in [10], 6.52 µM.
